Measured values from the NIST ThermoML archive (doi:10.1016/j.tca.2013.08.031).

Assay: molar heat capacity at constant volume
Details: Fluid (supercritical or subcritical phases), Vacuum adiabatic calorimetry

CCC(C)O (stereo not given) [butan-2-ol]
Details	molar heat capacity at constant volume [J/K/mol]
527.47 K, Mass density=142.27 kg/m3	538.57
527.66 K, Mass density=142.27 kg/m3	541.75
527.84 K, Mass density=142.27 kg/m3	547.68
527.89 K, Mass density=142.27 kg/m3	524.19
527.91 K, Mass density=142.27 kg/m3	561.92
527.93 K, Mass density=142.27 kg/m3	439.91
527.95 K, Mass density=142.27 kg/m3	388.84
527.97 K, Mass density=142.27 kg/m3	388.92
527.99 K, Mass density=142.27 kg/m3	375.57
528.01 K, Mass density=142.27 kg/m3	386.62
528.02 K, Mass density=142.27 kg/m3	388.84
528.02 K, Mass density=403.55 kg/m3	319.46
528.21 K, Mass density=142.27 kg/m3	337.77
528.21 K, Mass density=403.55 kg/m3	320.21
528.39 K, Mass density=403.55 kg/m3	321.69
528.58 K, Mass density=403.55 kg/m3	321.69
528.76 K, Mass density=403.55 kg/m3	324.65
528.95 K, Mass density=142.27 kg/m3	295.37
528.95 K, Mass density=403.55 kg/m3	322.43
529.13 K, Mass density=142.27 kg/m3	274.69
529.13 K, Mass density=403.55 kg/m3	326.14
529.31 K, Mass density=142.27 kg/m3	275.36
529.31 K, Mass density=403.55 kg/m3	306.86
529.5 K, Mass density=403.55 kg/m3	232
529.68 K, Mass density=403.55 kg/m3	229.78
529.87 K, Mass density=403.55 kg/m3	227.55
530.05 K, Mass density=142.27 kg/m3	274.1
530.23 K, Mass density=142.27 kg/m3	282.55
530.23 K, Mass density=403.55 kg/m3	227.55
530.42 K, Mass density=142.27 kg/m3	282.33
530.42 K, Mass density=403.55 kg/m3	228.29
530.6 K, Mass density=403.55 kg/m3	232
530.79 K, Mass density=184.89 kg/m3	471.41
530.79 K, Mass density=403.55 kg/m3	229.78
530.97 K, Mass density=184.89 kg/m3	466.37
530.97 K, Mass density=403.55 kg/m3	232
531.15 K, Mass density=184.89 kg/m3	474.16
531.15 K, Mass density=347.06 kg/m3	363.2
531.15 K, Mass density=403.55 kg/m3	229.78
531.34 K, Mass density=184.89 kg/m3	489.72
531.34 K, Mass density=347.06 kg/m3	356.52
531.34 K, Mass density=403.55 kg/m3	233.48
531.52 K, Mass density=184.89 kg/m3	492.32
531.52 K, Mass density=347.06 kg/m3	358.01
531.52 K, Mass density=403.55 kg/m3	233.48
531.7 K, Mass density=184.89 kg/m3	488.16
531.7 K, Mass density=284.93 kg/m3	365.79
531.7 K, Mass density=301.19 kg/m3	380.99
531.7 K, Mass density=347.06 kg/m3	360.23
531.7 K, Mass density=403.55 kg/m3	237.19
531.89 K, Mass density=184.89 kg/m3	479.34
531.89 K, Mass density=284.93 kg/m3	377.35
531.89 K, Mass density=301.19 kg/m3	380.99
531.89 K, Mass density=347.06 kg/m3	364.68
531.89 K, Mass density=403.55 kg/m3	239.41
532.07 K, Mass density=184.89 kg/m3	478.97
532.07 K, Mass density=245.67 kg/m3	434.57
532.07 K, Mass density=284.93 kg/m3	387.43
532.07 K, Mass density=347.06 kg/m3	363.94
532.07 K, Mass density=403.55 kg/m3	238.67
532.26 K, Mass density=184.89 kg/m3	490.54
532.26 K, Mass density=245.67 kg/m3	439.02
532.26 K, Mass density=286.65 kg/m3	404.56
532.26 K, Mass density=301.19 kg/m3	388.4
532.26 K, Mass density=347.06 kg/m3	364.68
532.26 K, Mass density=403.55 kg/m3	236.45
532.44 K, Mass density=245.67 kg/m3	433.61
532.44 K, Mass density=286.65 kg/m3	410.63
532.44 K, Mass density=301.19 kg/m3	386.17
532.44 K, Mass density=347.06 kg/m3	361.71
532.62 K, Mass density=184.89 kg/m3	485.64
532.62 K, Mass density=198.25 kg/m3	477.94
532.62 K, Mass density=245.67 kg/m3	439.84
532.62 K, Mass density=286.65 kg/m3	417.75
532.62 K, Mass density=301.19 kg/m3	388.4
532.62 K, Mass density=347.06 kg/m3	361.71
532.62 K, Mass density=403.55 kg/m3	232
532.81 K, Mass density=184.89 kg/m3	501.51
532.81 K, Mass density=198.25 kg/m3	476.53
532.81 K, Mass density=245.67 kg/m3	441.76
532.81 K, Mass density=286.65 kg/m3	423.83
532.81 K, Mass density=301.19 kg/m3	385.43
532.81 K, Mass density=347.06 kg/m3	364.68
532.81 K, Mass density=403.55 kg/m3	231.26
532.81 K, Mass density=474.07 kg/m3	191.23
532.99 K, Mass density=184.89 kg/m3	501.8
532.99 K, Mass density=198.25 kg/m3	476.23
532.99 K, Mass density=245.67 kg/m3	435.17
532.99 K, Mass density=286.65 kg/m3	421.6
532.99 K, Mass density=301.19 kg/m3	390.62
532.99 K, Mass density=347.06 kg/m3	370.61
532.99 K, Mass density=474.07 kg/m3	191.23
533.17 K, Mass density=184.89 kg/m3	502.32
533.17 K, Mass density=198.25 kg/m3	482.38
533.17 K, Mass density=245.67 kg/m3	443.91
533.17 K, Mass density=284.93 kg/m3	404.04
533.17 K, Mass density=286.65 kg/m3	417.75
533.17 K, Mass density=301.19 kg/m3	393.59
533.17 K, Mass density=347.06 kg/m3	373.57
533.17 K, Mass density=474.07 kg/m3	197.16
533.36 K, Mass density=184.89 kg/m3	511.07
533.36 K, Mass density=198.25 kg/m3	490.83
533.36 K, Mass density=245.67 kg/m3	447.32
533.36 K, Mass density=284.93 kg/m3	410.71
533.36 K, Mass density=286.65 kg/m3	416.27
